Calls of active or inactive are those of the source.
What was measured:
INS1 = assay: INS-1E survival protection against cytokine death – cell-based, luminescence, retest, dose response (AID 449756); assay type: functional; conditions: Rattus norvegicus;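 also: cell death triggered by IL-1 beta plus TNF-alpha plus IFN-gamma mixture; protective hits raise ATP signal compared with cytokine alone wells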
[1] = reduction of Shn3 3'UTR-driven luciferase in osteoblasts – cell-based, Clone20 osteoblasts, firefly luciferase, cherry-picked, dose response (AID 624132); assay type: functional;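 also: firefly luciferase luminescence from reporter carrying the Shn3 3'UTR in osteoblasts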
Galanin receptor type 2 = Galanin receptor type 2 (Homo sapiens, UniProt O43603); assay: Dose Response cell-based high-throughput screening assay to identify antagonists of galanin receptor 2 (GALR2). [Related pubchem assays: 828, 866 ]; assay type: functional
[2] = HEK-293T viability loss, compound-treated – cell-based, uHTS hits, cytotoxicity control for B/T-cell NF-kB inhibitor project, dose response (AID 489019); assay type: functional;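 also: IC50 reflects cytotoxicity as loss of cell viability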
[3] = non-specific 3'UTR reporter inhibition in Clone20-Shn3RL – cell-based, Renilla luciferase, cherry-picked, counter-screen for Shn3 inhibitor project, dose response (AID 624133); assay type: functional
Jurkat = assay: blockers of NF-kB activation in T cells – Jurkat, luciferase reporter, luminescence, B- and T-cell, dose response (AID 489004); assay type: functional, cell-based; conditions: Homo sapiens;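 also: NF-kB luciferase reporter Jurkat cells stimulated with PMA plus ionomycin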
Galanin receptor type 3 = Galanin receptor type 3 (Homo sapiens, UniProt O60755); assay: Fluorescence-based cell-based primary high throughput dose response assay to identify antagonists of the Galanin Receptor 3 (GalR3).; assay type: functional
cells = assay type: functional, cell-based; conditions: HEK-CNG
[4] = loss of viability in HepG2 cells – cell-based, CellTiter-Glo, cherry-picked, cytotoxicity control for Shn3 inhibitor project, dose response (AID 624134); assay type: functional
HEK293 [5] = assay: cells; conditions: Homo sapiens
[6] = acridine orange displacement from DNA – biochemical, fluorescence polarization, cherry-pick, artefact control for RAD54 inhibitor project, dose response (AID 651673); assay type: functional
[7] = biological target: T1, DNA repair and recombination protein RAD54-like (Homo sapiens, UniProt Q92698); assay: RAD54 Holliday junction migration blockers – biochemical, fluorescence, cherry-picked samples, dose series, confirmation (AID 651657); assay type: functional
T1 sequence (Q92698 whole entry): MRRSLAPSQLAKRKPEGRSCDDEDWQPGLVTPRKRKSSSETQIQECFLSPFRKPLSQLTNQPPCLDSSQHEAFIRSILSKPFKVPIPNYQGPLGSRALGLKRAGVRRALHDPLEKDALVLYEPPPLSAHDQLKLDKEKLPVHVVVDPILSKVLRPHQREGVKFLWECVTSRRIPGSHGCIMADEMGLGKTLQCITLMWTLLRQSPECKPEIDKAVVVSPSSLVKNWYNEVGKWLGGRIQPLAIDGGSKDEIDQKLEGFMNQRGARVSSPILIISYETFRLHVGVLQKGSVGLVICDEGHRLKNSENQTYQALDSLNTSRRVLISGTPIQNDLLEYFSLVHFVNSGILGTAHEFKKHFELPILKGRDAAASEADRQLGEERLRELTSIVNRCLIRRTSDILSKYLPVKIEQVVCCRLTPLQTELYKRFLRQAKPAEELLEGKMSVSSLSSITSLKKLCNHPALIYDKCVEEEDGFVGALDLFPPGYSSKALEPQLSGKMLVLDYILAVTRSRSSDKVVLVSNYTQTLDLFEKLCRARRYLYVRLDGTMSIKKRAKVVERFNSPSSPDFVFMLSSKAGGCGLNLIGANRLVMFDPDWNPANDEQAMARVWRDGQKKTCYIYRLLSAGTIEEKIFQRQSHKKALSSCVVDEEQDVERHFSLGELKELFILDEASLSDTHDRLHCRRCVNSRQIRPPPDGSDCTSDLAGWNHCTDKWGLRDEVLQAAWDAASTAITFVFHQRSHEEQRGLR

HEK293 [8] = assay: cells; conditions: Homo sapiens; remark: listed apart in the source
[9] = biological target: T2, Nuclear receptor subfamily 0 group B member 1 (Homo sapiens, UniProt P51843); assay: Luminescence-based cell-based high throughput dose response assay for inhibitors of the orphan nuclear receptor subfamily 0, group B, member 1 (DAX1; NR0B1). [Related pubchem assays (depositor defined):AID504766, AID504790]; assay type: functional
T2 sequence (P51843 whole entry): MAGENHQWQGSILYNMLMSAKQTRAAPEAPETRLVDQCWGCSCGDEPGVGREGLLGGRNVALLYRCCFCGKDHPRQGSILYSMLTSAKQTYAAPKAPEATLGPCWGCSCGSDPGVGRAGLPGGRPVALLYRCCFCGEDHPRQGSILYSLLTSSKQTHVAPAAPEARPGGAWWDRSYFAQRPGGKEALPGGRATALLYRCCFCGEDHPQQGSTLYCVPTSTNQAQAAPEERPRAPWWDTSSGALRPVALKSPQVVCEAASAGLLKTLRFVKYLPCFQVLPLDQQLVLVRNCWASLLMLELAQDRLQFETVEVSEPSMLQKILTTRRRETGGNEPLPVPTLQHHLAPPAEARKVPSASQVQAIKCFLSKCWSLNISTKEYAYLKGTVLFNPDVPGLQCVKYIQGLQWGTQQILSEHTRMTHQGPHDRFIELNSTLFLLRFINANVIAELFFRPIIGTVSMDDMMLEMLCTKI

HEK293 [10] = assay: cells; assay type: functional, cell-based; conditions: Homo sapiens
[11] = biological target: T3, DNA repair protein RAD52 homolog (Homo sapiens, UniProt P43351); assay type: functional, biochemical
T3 sequence (P43351 whole entry): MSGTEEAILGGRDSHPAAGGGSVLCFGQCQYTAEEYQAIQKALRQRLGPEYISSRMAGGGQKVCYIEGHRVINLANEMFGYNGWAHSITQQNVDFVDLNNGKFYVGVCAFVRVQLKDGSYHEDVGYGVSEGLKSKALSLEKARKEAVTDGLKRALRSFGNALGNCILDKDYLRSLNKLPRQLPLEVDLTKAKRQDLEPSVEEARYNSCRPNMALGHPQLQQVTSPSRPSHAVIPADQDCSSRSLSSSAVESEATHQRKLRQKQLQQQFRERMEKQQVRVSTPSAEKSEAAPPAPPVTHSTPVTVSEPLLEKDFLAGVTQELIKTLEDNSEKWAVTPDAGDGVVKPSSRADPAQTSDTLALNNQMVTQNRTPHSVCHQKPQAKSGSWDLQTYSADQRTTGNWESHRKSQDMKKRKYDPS

Sequence of Galanin receptor type 2 (O43603 whole entry): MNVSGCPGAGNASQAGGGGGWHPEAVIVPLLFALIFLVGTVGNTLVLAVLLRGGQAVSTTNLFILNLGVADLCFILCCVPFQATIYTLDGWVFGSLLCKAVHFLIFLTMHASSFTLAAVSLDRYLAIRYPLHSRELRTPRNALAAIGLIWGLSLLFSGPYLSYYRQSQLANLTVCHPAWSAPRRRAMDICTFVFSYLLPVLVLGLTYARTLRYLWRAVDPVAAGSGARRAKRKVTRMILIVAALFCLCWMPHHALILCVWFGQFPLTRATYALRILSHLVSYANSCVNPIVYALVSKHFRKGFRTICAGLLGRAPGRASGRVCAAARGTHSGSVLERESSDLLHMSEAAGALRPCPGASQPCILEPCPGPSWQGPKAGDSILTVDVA
Sequence of Galanin receptor type 3 (O60755 whole entry): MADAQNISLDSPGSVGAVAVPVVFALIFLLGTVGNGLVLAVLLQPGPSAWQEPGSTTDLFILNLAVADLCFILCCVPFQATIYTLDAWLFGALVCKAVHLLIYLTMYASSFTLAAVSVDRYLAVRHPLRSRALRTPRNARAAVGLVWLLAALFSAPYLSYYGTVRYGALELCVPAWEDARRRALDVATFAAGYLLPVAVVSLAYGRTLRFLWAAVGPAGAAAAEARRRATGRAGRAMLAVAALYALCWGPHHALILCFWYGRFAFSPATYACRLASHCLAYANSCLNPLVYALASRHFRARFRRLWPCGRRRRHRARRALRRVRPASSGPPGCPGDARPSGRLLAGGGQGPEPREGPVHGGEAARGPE

COc1ccc(CCNc2c(C)c(C)nc3ncnn23)cc1
> 42 µM (not active): IC50 (Galanin receptor type 2)
inactive: IC50 [2] > 80 µM | IC50 (Jurkat) > 80 µM | EC50 (cells) > 29.9 µM
active: AC50 (INS1) 2.57 µM | AC50 [1] 0.565 µM | AC50 [3] < 0.26 µM | IC50 (Galanin receptor type 3) 1.31 µM | AC50 [4] 25.6 µM

COc1cc2c3c(cccc3c1)C(=O)N(CCN1CCCC1)C2=O
inactive: EC50 (HEK293 [5]) > 59.7 µM | EC50 (HEK293 [8]) > 59.7 µM | IC50 [9] > 67.6 µM | IC50 (HEK293 [10]) > 67.6 µM
active: AC50 [6] 37.1 µM | AC50 [7] 2.16 µM | AC50 [11] 5.72 µM

— ChEMBL document CHEMBL1201862, “PubChem BioAssay data set” (2004)
